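Five concentrations, 48 hours, 96-well plates. TGI is the concentration that stops growth completely.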
Key:
Assay in all cases: NCI tumour cell line growth inhibition, 48 h
HCC-2998 colon = test system: HCC-2998 colon
SF-539 CNS = test system: SF-539 CNS
A498 renal = test system: A498 renal
RPMI-8226 leukemia = test system: RPMI-8226 leukemia
EKVX NSCLC = test system: EKVX NSCLC
SK-MEL-28 melanoma = test system: SK-MEL-28 melanoma
HOP-92 NSCLC = test system: HOP-92 NSCLC
OVCAR-5 ovarian = test system: OVCAR-5 ovarian
T-47D breast = test system: T-47D breast
MDA-MB-231 breast = test system: MDA-MB-231 breast
SF-268 CNS = test system: SF-268 CNS
UO-31 renal = test system: UO-31 renal
HS 578T breast = test system: HS 578T breast
MOLT-4 leukemia = test system: MOLT-4 leukemia
SNB-19 CNS = test system: SNB-19 CNS
LOX IMVI melanoma = test system: LOX IMVI melanoma
U251 CNS = test system: U251 CNS
HL-60(TB) leukemia = test system: HL-60(TB) leukemia
K-562 leukemia = test system: K-562 leukemia
A549 NSCLC = test system: A549 NSCLC
MDA-N = test system: MDA-N
SR leukemia = test system: SR leukemia
TK-10 renal = test system: TK-10 renal
BT-549 breast = test system: BT-549 breast
M14 melanoma = test system: M14 melanoma
MDA-MB-435 = test system: MDA-MB-435
SK-MEL-5 melanoma = test system: SK-MEL-5 melanoma
CAKI-1 renal = test system: CAKI-1 renal
SW-620 colon = test system: SW-620 colon
OVCAR-8 ovarian = test system: OVCAR-8 ovarian
MCF7 breast = test system: MCF7 breast
DU-145 prostate = test system: DU-145 prostate
SN12C renal = test system: SN12C renal
NCI/ADR-RES ovarian = test system: NCI/ADR-RES ovarian
NCI-H23 lung = test system: NCI-H23 lung
SF-295 CNS = test system: SF-295 CNS
KM12 colon = test system: KM12 colon
NCI-H460 lung = test system: NCI-H460 lung
NCI-H522 lung = test system: NCI-H522 lung
OVCAR-4 ovarian = test system: OVCAR-4 ovarian
HCT-116 colon = test system: HCT-116 colon
OVCAR-3 ovarian = test system: OVCAR-3 ovarian
ACHN renal = test system: ACHN renal
IGROV1 ovarian = test system: IGROV1 ovarian
MALME-3M melanoma = test system: MALME-3M melanoma
SNB-75 CNS = test system: SNB-75 CNS
PC-3 prostate = test system: PC-3 prostate
HOP-62 NSCLC = test system: HOP-62 NSCLC
UACC-257 melanoma = test system: UACC-257 melanoma
NCI-H226 lung = test system: NCI-H226 lung
RXF 393 renal = test system: RXF 393 renal
UACC-62 melanoma = test system: UACC-62 melanoma
HCT-15 colon = test system: HCT-15 colon
CCRF-CEM leukemia = test system: CCRF-CEM leukemia
786-0 renal = test system: 786-0 renal
HT29 colon = test system: HT29 colon
LXFL 529 NSCLC = test system: LXFL 529 NSCLC
DLD-1 colon = test system: DLD-1 colon
M19-MEL melanoma = test system: M19-MEL melanoma
DMS 114 small cell lung = test system: DMS 114 small cell lung
COLO 205 colon = test system: COLO 205 colon
SNB-78 CNS = test system: SNB-78 CNS
DMS 273 small cell lung = test system: DMS 273 small cell lung
KM20L2 colon = test system: KM20L2 colon
SK-OV-3 ovarian = test system: SK-OV-3 ovarian

CC(=O)O[C@H]1CC[C@H]2[C@@H]3CCC4=C(C(=O)C=CC4(C)OC(C)=O)[C@H]3CC[C@]12C (some centres undefined)
TGI (HCC-2998 colon): > 100 µM
TGI (SF-539 CNS): > 100 µM
TGI (A498 renal): > 100 µM
TGI (RPMI-8226 leukemia): > 100 µM
TGI (EKVX NSCLC): > 100 µM
TGI (SK-MEL-28 melanoma): > 100 µM
TGI (HOP-92 NSCLC): > 100 µM
TGI (OVCAR-5 ovarian): > 100 µM
TGI (T-47D breast): > 100 µM
TGI (MDA-MB-231 breast): > 100 µM
TGI (SF-268 CNS): > 100 µM
TGI (UO-31 renal): > 100 µM
TGI (HS 578T breast): > 100 µM
TGI (MOLT-4 leukemia): > 100 µM
TGI (SNB-19 CNS): > 100 µM
TGI (LOX IMVI melanoma): > 100 µM
TGI (U251 CNS): > 100 µM
TGI (HL-60(TB) leukemia): 97.1 µM
TGI (K-562 leukemia): > 100 µM
TGI (A549 NSCLC): > 100 µM
TGI (MDA-N): > 100 µM
TGI (SR leukemia): > 100 µM
TGI (TK-10 renal): > 100 µM
TGI (BT-549 breast): > 100 µM
TGI (M14 melanoma): > 100 µM
TGI (MDA-MB-435): > 100 µM
TGI (SK-MEL-5 melanoma): > 100 µM
TGI (CAKI-1 renal): > 100 µM
TGI (SW-620 colon): > 100 µM
TGI (OVCAR-8 ovarian): > 100 µM
TGI (MCF7 breast): 73.1 µM
TGI (DU-145 prostate): > 100 µM
TGI (SN12C renal): > 100 µM
TGI (NCI/ADR-RES ovarian): > 100 µM
TGI (NCI-H23 lung): > 100 µM
TGI (SF-295 CNS): > 100 µM
TGI (KM12 colon): > 100 µM
TGI (NCI-H460 lung): > 100 µM
TGI (NCI-H522 lung): > 100 µM
TGI (OVCAR-4 ovarian): > 100 µM
TGI (HCT-116 colon): > 100 µM
TGI (OVCAR-3 ovarian): > 100 µM
TGI (ACHN renal): > 100 µM
TGI (IGROV1 ovarian): > 100 µM
TGI (MALME-3M melanoma): > 100 µM
TGI (SNB-75 CNS): > 100 µM
TGI (PC-3 prostate): > 100 µM
TGI (HOP-62 NSCLC): > 100 µM
TGI (UACC-257 melanoma): > 100 µM
TGI (NCI-H226 lung): > 100 µM
TGI (RXF 393 renal): 92.1 µM
TGI (UACC-62 melanoma): 74.5 µM
TGI (HCT-15 colon): > 100 µM
TGI (CCRF-CEM leukemia): > 100 µM
TGI (786-0 renal): > 100 µM
TGI (HT29 colon): > 100 µM

O=C1c2ccccc2C(=O)C2C3c4ccccc4C(c4ccccc43)C12 (centres undefined)
TGI (HCC-2998 colon): 88.8 µM
TGI (SF-539 CNS): 25.4 µM
TGI (LXFL 529 NSCLC): 37.2 µM
TGI (RPMI-8226 leukemia): 25.7 µM
TGI (EKVX NSCLC): 68.5 µM
TGI (SK-MEL-28 melanoma): > 100 µM
TGI (SF-268 CNS): 34.9 µM
TGI (UO-31 renal): 59.6 µM
TGI (DLD-1 colon): > 100 µM
TGI (M19-MEL melanoma): 40 µM
TGI (DMS 114 small cell lung): 42.7 µM
TGI (COLO 205 colon): > 100 µM
TGI (MOLT-4 leukemia): 27.9 µM
TGI (SNB-78 CNS): 51.3 µM
TGI (SNB-19 CNS): > 100 µM
TGI (LOX IMVI melanoma): 28.9 µM
TGI (U251 CNS): > 100 µM
TGI (K-562 leukemia): 32.2 µM
TGI (A549 NSCLC): > 100 µM
TGI (SR leukemia): 30.5 µM
TGI (TK-10 renal): 63.3 µM
TGI (M14 melanoma): > 100 µM
TGI (SW-620 colon): > 100 µM
TGI (OVCAR-8 ovarian): 42.3 µM
TGI (SN12C renal): 61.5 µM
TGI (NCI-H23 lung): > 100 µM
TGI (DMS 273 small cell lung): 39.4 µM
TGI (SF-295 CNS): 31.5 µM
TGI (KM12 colon): > 100 µM
TGI (NCI-H460 lung): > 100 µM
TGI (NCI-H522 lung): > 100 µM
TGI (HCT-116 colon): > 100 µM
TGI (OVCAR-3 ovarian): 45.8 µM
TGI (ACHN renal): > 100 µM
TGI (IGROV1 ovarian): 78.3 µM
TGI (MALME-3M melanoma): 38.8 µM
TGI (SNB-75 CNS): 42.7 µM
TGI (KM20L2 colon): > 100 µM
TGI (HOP-62 NSCLC): > 100 µM
TGI (SK-OV-3 ovarian): > 100 µM
TGI (UACC-257 melanoma): > 100 µM
TGI (NCI-H226 lung): > 100 µM
TGI (RXF 393 renal): 22.7 µM
TGI (UACC-62 melanoma): > 100 µM
TGI (HCT-15 colon): > 100 µM
TGI (CCRF-CEM leukemia): 26 µM
TGI (786-0 renal): 18.9 µM
TGI (HT29 colon): 79.4 µM

Source: PubChem BioAssay (NCI)
